US20250171404A1, “PCNA INHIBITORS AND USES THEREOF” (CITY OF HOPE, priority 2022, published 2025)
Read-outs that look alike come from different tables or passages of the source. Each block holds one molecule with its values, some of them ahead of it.

Tests used:
[1] = Cell growth IC50, screening of AOH1160 analogs (cell line not given); type: cell-based; conditions: read-out: IC50 values
Protocol: (§1) FIG. 29. IC50 data for select compounds. The indicated cell lines were seeded at 10^4 cells per well in a 96 well plate. After allowing to attach to the plate overnight, cells were treated with various concentrations of the indicated compounds in triplicates for 72 hrs. The cell growth was measured by an SRB assay. The cell abundances under each treatment condition relative to the baseline were averaged and graphed ±S.D. The baseline is defined as the median value of the cell abundances under the treatment by the two lowest compound concentrations. The IC50 was calculated by the Prism program.

PCNA = target: T1, PCNA (Homo sapiens, UniProt P12004); assay: Thermal denaturation (thermal shift) assay; type: binding; conditions: FIG. 24
T1 construct: made in house; host or cells: E. coli Rosetta 2 (DE3)
T1 sequence (P12004 whole entry): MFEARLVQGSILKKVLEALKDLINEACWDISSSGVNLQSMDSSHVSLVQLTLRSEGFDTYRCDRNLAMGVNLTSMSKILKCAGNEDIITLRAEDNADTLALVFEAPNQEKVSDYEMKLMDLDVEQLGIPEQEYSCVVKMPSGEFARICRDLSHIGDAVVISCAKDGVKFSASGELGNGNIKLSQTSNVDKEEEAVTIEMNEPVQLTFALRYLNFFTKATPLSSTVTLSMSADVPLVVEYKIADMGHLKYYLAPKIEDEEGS
Protocol: FIGS. 1A-1E. AOH1160 analog interactions with PCNA. FIG. 1A: Thermal shift assay: Normalized inverse derivative thermal denaturation plots of 9 μM apo-PCNA with DMSO control is depicted with a black dashed line and PCNA in the presence of 10 μM AOH1160LE is shown in light grey and 30 μM AOH1160LE in dark grey. ΔTm values are provided. FIG. 1B: As described in FIG. 1A, in the presence of 10 μM AOH1996 depicted in light grey and 30 μM AOH1996 depicted in dark grey. FIG. 1C: Four monomers (chains A-D) of PCNA are present in the asymmetric unit of the crystal. Chains A, B, and C form the homotrimer biological unit, while chain Dis orientated perpendicular to the plane of the ring, below the interface of chains B and C and it belongs to an adjacent ring. Inset: Three molecules of AOH1160LE bind in and adjacent to the PIP box cavity of each of the PCNA ring subunits. The omit map, gray mesh, is contoured to 1.56. Two PCNA monomer subunits from adjacent rings stack against each other, placing the PIP box and IDCLs of each subunit in opposing directions. FIG. 1D: The three AOH1160LE molecules are shown as stick figure representations. Two of the compounds, left and central, bind into the PIP box cavity at known PCNA-partner/compound interaction sites. […] The electrostatic surface maps are depicted with Poisson-Boltzmann electrostatic surface potentials shown in dark grey and light grey, corresponding to −10 to +10 kT/e respectively.
Targeting the PIP box and APIM binding domain of PCNA. AOH1160, a small molecule PCNA ligand, targets the cancer-distinct L126-Y133 region of PCNA (Malkas et al., 2006) and is selectively toxic to cancer cells (Gu et al., 2018). […]
Thermal denaturation assay for PCNA-AOH1996 interaction. […] Fluorescence intensity was measured within the excitation/emission ranges 470-505/540-700 nm.

H1753 = assay: Cell growth IC50, screening of AOH1160 analogs; type: cell-based
Protocol: as §1

MDA-MB-468 = assay: Cell growth IC50, screening of AOH1160 analogs; type: cell-based; conditions: Homo sapiens, MDA-MB-468; read-out: IC50 values
Protocol: as §1

H358 = assay: Cell growth IC50, screening of AOH1160 analogs; type: cell-based; conditions: Homo sapiens, NCI-H358
Protocol: as §1

SK-N-AS = assay: Cell growth IC50, screening of AOH1160 analogs; type: cell-based; conditions: Homo sapiens
Protocol: as §1

SK-N-BE(2)c = assay: Cell growth IC50, screening of AOH1160 analogs; type: cell-based; conditions: Homo sapiens
Protocol: as §1

[2] = test system: SK-N-AS derived xenograft tumors; assay: Survival of mice bearing xenograft tumors, AOH1996 with CPT-11; type: in vivo, ES1^e/SCID mice; conditions: AOH1996 80 mg/kg oral 8 d; CPT-11 15 mg/kg i.p. 3 d; vs untreated
Protocol: FIGS. 4A-4H. Pharmacokinetics and anti-tumor growth activity of AOH1996 in vivo. FIG. 4A: After oral administration, the plasma concentrations of AOH1996 from three male and three female ES1^e/SCID mice at the indicated time points were averaged and graphed ±S.D. The inset contains PK parameters determined by a standard noncompartmental method. FIG. 4B: A similar PK study of AOH1996 was performed in dogs. FIGS. 4C-4E: Mice bearing the xenograft tumors of neuroblastoma (FIG. 4C: SK-N-BE(2)c), breast cancer (FIG. 4D: MDA-MB-468), and small-cell lung cancer (FIG. 4E: H82) were given vehicle only (black) or 40 mg/kg of AOH1996 (grey) twice daily immediately after the first measurement. Tumor sizes were measured by a dial caliper each week. Tumor volumes (0.4×L×W^2) were averaged and graphed ±S.E. (*, P<0.01). FIG. 4F: Animal body weight was monitored throughout the studies as an indicator of toxicity. […] FIG. 4G: The levels of phosphor-Chk1 (pChk1) and γH2A.X in SK-N-BE(2)c derived tumor samples were analyzed by IHC. […] The p values determined by the Log-rank (Mantel-Cox) test between combination treatment and each of the control groups are p=0.0003 (Combination vs. NoRx), p=0.005 (Combination vs. AOH1996 alone), and p=0.024 (Combination vs. CPT-11 alone). […]
In vivo tumor model. […] Tumor size and animal weight were measured weekly. […]

γH2A.X = γH2A.X Western blot (DNA damage marker); type: cell-based, human; conditions: SK-N-AS; 500 nM AOH1996 and/or 50 μM DRB overnight
caPCNA = caPCNA (Homo sapiens, UniProt P12004); assay: Molecular probe binding in vitro
Chain of caPCNA (P12004 whole entry): as above

[3] = target: T2, PCNA interaction with RPB1 (Homo sapiens, UniProt P12004); assay: PCNA interaction with RPB1 (immunoprecipitation, western blotting); type: cell-based; conditions: SK-N-AS
T2 construct: expressed in transfected cells; host or cells: SK-N-AS (FLAG-RPB1 exogenous; PCNA endogenous)
Protocol: FIGS. 5A-5E. Modulation of PCNA interaction with RNA polymerase II. FIG. 5A: Chromatin-bound (CB) proteins were fractioned from HEK293T cells expressing FLAG-tagged PCNA after the cells were treated with or without 500 nM AOH1996. Proteins in complex with FLAG-PCNA were immune-precipitated and analyzed by mass spectrometry. Shown are numbers of proteins whose abundances were altered (grey) or unaltered (black) by more than 2-fold by AOH1996 treatment. FIG. 5B: SK-N-AS cells exogenously expressing a FLAG-tagged RPB1 gene were fractioned before and after being treated with 500 nM AOH1996 overnight. PCNA in complex with chromatin-bound (CB) FLAG-RBP1 were analyzed by western blotting. FIG. 5C: Human SK-N-AS cells were treated with UV in the presence or absence of AOH1996 (AOH) or R9-caPep (caPep). Whole cell extracts were analyzed by western blotting. FIG. 5D: Cells exogenously expressing FLAG-tagged wildtype RPB1 or FLAG-tagged APIM-mutant RPB1 gene were fractioned. PCNA in complex with chromatin-bound (CB) FLAG-RBP1 were analyzed by western blotting. FIG. 5E: HEK293T cells were transiently transfected with a FLAG-tagged wildtype RPB1 (APIM WT) gene or mutant RPB1 gene (APIM mutant). The intracellular MCM7 and RBP1 (both the hypo-phosphorylated RNAPIIa and hyper-phosphorylated RNAPIIo forms) were analyzed by western blot after cells were treated by the indicated agents and/or UV.
Modulating PCNA interaction with transcription machinery.
Cell fractionation and immunoprecipitation. Cells were fractionated as previously described (Li et al., 2018). Briefly, intact nuclei isolated following osmotic lysis were homogenized using a 21 G needle. Chromatin was pelleted by centrifugation and incubated overnight at 4° C. with benzonase in two volumes of nuclease buffer (20 mM HEPES pH 7.5, 1.5 mM MgCl2, 1 mM EDTA, 150 mM KCl, 10% glycerol, 0.5 U μl-1 benzonase). The resulting supernatant was collected as the CB fraction. Alternatively, we sequentially incubated the chromatin pellet with RNase A and benzonase and collected the supernatants after each digestion as the CB:RNA+ and CB:RNA− fractions, respectively (Li et al., 2018).

ΔTm (TSA data) (PCNA): very similar ΔTm compared to AOH1996
Molecule: CC(C)[C@H](NC(=O)c1cccc2ccccc12)C(=O)Nc1ccccc1Oc1ccccc1 [AOH1160LV, (S)—N-(3-methyl-1-oxo-1-((2-phenoxyphenyl)amino)butan-2-yl)-1-naphthamide]
IC50 [1]: > 10 µM

IC50 (H1753; FIG. 26, H1752, read-out: IC50): 1.6 µM | IC50 (H1753; H1753, read-out: IC50 values): 1.6 µM | IC50 (MDA-MB-468): 2.3 µM | IC50 (H358; FIG. 26, H358, read-out: IC50): 1.8 µM | IC50 (H358; read-out: IC50 values): 1.8 µM | IC50 (SK-N-AS; FIG. 26, AK-N-AS, read-out: IC50): 1.5 µM | IC50 (SK-N-AS; read-out: IC50 values): 1.5 µM
Molecule: COc1cccc(Oc2ccccc2NC(=O)[C@H](C)NC(=O)c2cccc3ccccc23)c1 [AOH1996LA, (S)—N-(1-((2-(3-methoxyphenoxy)phenyl)amino)-1-oxopropan-2-yl)-1-naphthamide]

IC50 (SK-N-BE(2)c): 1.03 µM | IC50 (SK-N-AS; read-out: IC50 values): 1.12 µM
Molecule: Cc1ccccc1Oc1ccccc1NC(=O)CNC(=O)c1cccc(C)c1C [AOH-DMB-2CH3, 2,3-dimethyl-N-(2-oxo-2-((2-(o-tolyloxy)phenyl)amino)ethyl)benzamide]

binding to caPCNA as molecular probe (caPCNA): bound caPCNA tightly
Molecule: NCCCC[C@H](N)C(=O)O [Lysine]

The remaining lines, values behind:

Molecule: CCc1c2c(nc3ccc(OC(=O)N4CCC(N5CCCCC5)CC4)cc13)-c1cc3c(c(=O)n1C2)COC(=O)[C@]3(O)CC [CPT-11, reference compound]
increase of median survival [2]: 34.6%

Molecule: OC[C@H]1O[C@@H](n2cnc3cc(Cl)c(Cl)cc32)[C@H](O)[C@@H]1O [DRB, reference compound]
γH2A.X levels, AOH1996 with DRB (γH2A.X): can suppress the DNA damage induced by AOH1996

Molecule: N[C@@H](CCC(=O)O)C(=O)O [Glutamic acid]
binding to caPCNA as molecular probe (caPCNA): bound caPCNA tightly

Molecule: caPep: contains the L126-Y133 sequence of PCNA that overlaps APIM-interacting region of PCNA (LGIPEQEY; UniProt P12004 126-133, looked up, fragment) [reference compound]
PCNA interaction with RPB1 ([3]; chromatin-bound): blocked PCNA interaction with RPB1 | RPB1 levels ([3]; whole cell extracts): increased RPB1 levels
